Where two headings read alike, the source gives them in different places.
How the values were obtained:
Experiment in all cases: Synergistic Growth Inhibition Assay (MIC and FIC index, 96-well, resazurin)
Type in all cases: cell-based
[1] = system: Fusarium oxysporum; conditions: Fusarium oxysporum
Method: (§1) In some embodiments, the synergistic action between the pesticidal active ingredient, and the at least one C6-C10 (or alternatively C11 or C12) saturated or unsaturated aliphatic acid components of the pesticidal compositions according to embodiments of the present disclosure was tested using a Synergistic Growth Inhibition Assay, which is derived from and related to a checkerboard assay as is known in the art for testing of combinations of antimicrobial agents. In the Synergistic Growth Inhibition Assay used in accordance with some embodiments of the present disclosure, multiple dilutions of combinations of pesticidal active ingredient and at least one C6-C10 saturated or unsaturated aliphatic acid agents are tested in individual cells for inhibitory activity against a target pest or pathogenic organism. In one such embodiment, the combinations of pesticidal active ingredient and C6-C10 (or alternatively C11 or C12) saturated or unsaturated aliphatic acid agents may preferably be tested in decreasing concentrations. In a further such embodiment, the combinations of pesticidal active ingredient and C6-C10 (or alternatively C11 or C12) saturated or unsaturated aliphatic acid agents may be tested in increasing concentrations. These multiple combinations of the pesticidal active ingredient and at least one C6-C10 (or alternatively C11 or C12) saturated or unsaturated aliphatic acid agents may be prepared in 96-well microtiter plates. In one such embodiment, the Synergistic Growth Inhibition Assay then comprises rows which each contain progressively decreasing concentrations of the pesticidal active ingredient and one or more C6-C10 (or alternatively C11 or C12) saturated or unsaturated aliphatic acid agents to test for the MIC of the agents in combination at which growth of the target pest or pathogen is inhibited. Thus, each well of the microtiter plate is a unique combination of the two agents, at which inhibitory efficacy of the combination against the target pest or pathogen can be determined.
(§2) In one embodiment according to the present disclosure, for each row of microtiter cells in the Synergistic Growth Inhibition Assay, the FIC index is calculated from the lowest concentration of the pesticidal active ingredient and one or more C6-C10 saturated or unsaturated aliphatic acid agents necessary to inhibit growth of a target pest or pathogen. The FIC of each component is derived by dividing the concentration of the agent present in that well of the microtiter plate by the minimal inhibitory concentration (MIC) needed of that agent alone to inhibit growth of the target pest or pathogen. The FIC index is then the sum of these values for both agents in that well of the microtiter plate. […] Fractional inhibitory concentration indices may then used as measure of synergy. […] When the FIC index is equal to 1, the combination is additive.
(§3) Then, serial dilutions of these initial compositions in successive wells in the row of the microtiter plate were used to assay the pesticidal composition under the same conditions to determine the concentration of the composition combining the two agents corresponding to the microtiter well in which growth inhibition of the target pest or organism ceases.
Resazurin dye (also known as Alamar blue dye) was used as an indicator to determine the presence of growth or inhibition of growth of Fusarium oxysporum in the wells of the 96 well microtiter plates used in the exemplary Synergistic Growth Inhibition Assay. In addition to the color change of the resazurin dye in the presence of growth of the Fusarium oxysporum, an optical or visual examination of the microtiter well may also be made to additionally determine the presence of growth or inhibition of growth of the Fusarium oxysporum.

[2] = system: Botrytis cinerea; conditions: for MIC: Botrytis cinerea, 48 h
Method: as §1, §2, §3
(§4) Similarly to as described above, Resazurin was used as an indicator of growth or inhibition of growth of Botrytis cinerea in the exemplary Synergistic Growth Inhibition Assay. In addition to the color change of the resazurin, an optical or visual examination of the microtiter well may also be made to additionally determine the presence of growth or inhibition of growth of the Botrytis cinerea.

[3] = system: Sclerotinia sclerotiorum; conditions: for MIC: Sclerotinia sclerotiorum
Method: as §1, §2, §3
as §4, with “Sclerotinia sclerotiorum” for “Botrytis cinerea”, “Sclerotinia sclerotiorum.” for “Botrytis cinerea.”

[4] = Table 23, Compound A alone, incubation 48 hours, read-out: MIC (A)
[5] = Table 20B, Compound A alone, incubation 7 days, read-out: MIC (A)
[6] = Table 51, Compound B alone, 48 hours incubation, read-out: MIC (B)
[7] = Table 59, Compound B alone, 48 hours incubation, read-out: MIC (B)
[8] = Table 56, Compound B alone, 48 hours incubation, read-out: MIC (B)
[9] = 48 h, Table 27, Compound B alone, 48 hours incubation, read-out: MIC (B)
[10] = 48 h, Table 30, Compound B alone, 48 hours incubation, read-out: MIC (B)
[11] = Table 24, Compound B alone, 48 hours incubation, read-out: MIC (B)
[12] = Table 25, Compound B alone, 48 hours incubation, read-out: MIC (B)
[13] = Table 26, Compound B alone, 48 hours incubation, read-out: MIC (B)
[14] = Table 54, Compound B alone, 48 hours incubation, read-out: MIC (B)

Work on Fc1ccc([C@]2(Cn3cncn3)O[C@H]2c2ccccc2Cl)cc1 (racemic) [Epoxiconazole, reference compound] yielded an MIC ([1]; 48 h, Table 31, Compound A alone, 48 hours incubation, read-out: MIC (A)) of 30 µg/mL, an MIC [2, 4] of 30 µg/mL and an MIC ([2]; Table 49, Compound A alone, 48 hours incubation, read-out: MIC (A)) of 30 µg/mL. For the same molecule, the MIC ([3]; Table 19, Compound A alone, incubation 7 days, read-out: MIC (A)) was 30 µg/mL, the MIC [3, 5] was 30 µg/mL and the MIC ([3]; Table 40, Compound A alone, 7 days incubation, read-out: MIC (A)) was 30 µg/mL.

In the case of CCC(CC)(CC)C(=O)O [2,2-Diethylbutanoic acid], the MIC [2, 6] was 250 µg/mL and the MIC [2, 7] was 250 µg/mL.

CCCCCCCCC(O)C(=O)O (centres unmarked) [2-Hydroxydecanoic acid] gave an MIC [2, 7] of 312 µg/mL.

For CCCCCCCCC(C)C(=O)O (centres unmarked) [2-Methyldecanoic acid], the MIC [2, 6] was 7.81 µg/mL, the MIC [2, 8] was 125 µg/mL and the MIC [2, 7] was 125 µg/mL.

CCCCCCC(C)C(=O)O (centres unmarked) [2-Methyloctanoic acid] showed an MIC [2, 6] of 39.1 µg/mL, an MIC [2, 8] of 312 µg/mL and an MIC [2, 7] of 78.1 µg/mL.

Work on CCCCC(O)C(=O)O (centres unmarked) [2-hydroxyhexanoic acid] yielded an MIC [2, 7] of 1250 µg/mL.

Molecule CC=CCCC(=O)O [4-Hexenoic acid] has an MIC [1, 9] of 312 µg/mL, an MIC [1, 10] of 312 µg/mL and an MIC ([2]; Table 43, Compound B alone, 48 hours incubation, read-out: MIC (B)) of 312 µg/mL. For the same molecule, the MIC ([2]; Table 45, Compound B alone, 48 hours incubation, read-out: MIC (B)) was 312 µg/mL.

O=C(O)CCCCCCCO [8-Hydroxyoctanoic acid] showed an MIC ([2]; read-out: MIC (B), Table 51, Compound B alone, 48 hours incubation) of 1250 µg/mL, an MIC ([2]; read-out: MIC (B), Table 56, Compound B alone, 48 hours incubation) of 2500 µg/mL and an MIC ([2]; read-out: MIC (B), Table 59, Compound B alone, 48 hours incubation) of 1250 µg/mL.

With C/C=C/C=C/C(=O)[O-].[K+] [(2E,4E)-2,4-hexadienoic acid, potassium salt] the MIC ([1]; 24 h, read-out: MIC (B), Table 2, Compound B alone, 24 hour incubation) was 625 µg/mL and the MIC ([1]; 24 h, read-out: MIC(B), Table 1, Compound B alone, 24 hour incubation) was 625 µg/mL.

For CCCCCCCC/C=C\CCCCCCCC(=O)O [(9Z)-octadecenoic acid], the “MIC (B)” value ([2]; Table 49, Compound B alone, 48 hours incubation) was 5000 µg/mL, the “MIC (B)” value ([2]; Table 50, Compound B alone, 48 hours incubation) was 5000 µg/mL and the “MIC (B)” value ([3]; Table 33, Compound B alone, 7 days incubation) was 5000 µg/mL.

CCCCCCC/C=C\C(=O)O [Cis-2-decenoic acid] showed an MIC ([3]; Table 34, Compound B alone, 7 days incubation, read-out: MIC (B)) of 19.5 µg/mL.

In the case of CCCCCCCCCC(=O)O [Decanoic acid, decanoic acid], the MIC ([2]; Table 22, Compound B alone, incubation 48 hours, read-out: MIC (B)) was 78.1 µg/mL, the MIC [2, 11] was 312 µg/mL and the MIC [2, 12] was 15.6 µg/mL. For the same molecule, the MIC [2, 13] was 78.1 µg/mL, the MIC ([2]; Table 52, Compound B alone, 48 hours incubation, read-out: MIC(B)) was 15.6 µg/mL and the MIC [2, 14] was 15.6 µg/mL.

Work on CCCCCCCCCC(=O)[O-].[K+] [Decanoic acid, potassium salt, decanoic acid, potassium salt] yielded an MIC ([1]; 24 h, read-out: MIC(B), Table 7, Compound B alone, 24 hour incubation) of 78.1 µg/mL and an MIC ([1]; read-out: MIC (B), Table 8, Compound B alone) of 78.1 µg/mL.

CCCCCCCCCCCC(=O)O [Dodecanoic acid, dodecanoic acid] showed an MIC ([2]; Table 21, Compound B alone, incubation 48 hours, read-out: MIC (B)) of 25 µg/mL, an MIC [2, 11] of 50 µg/mL and an MIC [2, 12] of 50 µg/mL. It also gave an MIC [2, 13] of 50 µg/mL, an MIC [2, 14] of 50 µg/mL and an MIC [2, 8] of 50 µg/mL. For the same molecule, the MIC ([3]; Table 16, Compound B alone, incubation 7 days, read-out: MIC (B)) was 50 µg/mL, the MIC ([3]; Table 17, Compound B alone, incubation 7 days, read-out: MIC (B)) was 50 µg/mL and the MIC ([3]; Table 18, Compound B alone, incubation 7 days, read-out: MIC (B)) was 50 µg/mL. For the same molecule, the MIC ([3]; Table 20A, Compound B alone, incubation 7 days, read-out: MIC (B)) was 25 µg/mL.

Molecule N#Cc1c[nH]cc1-c1cccc2c1OC(F)(F)O2 [Fludioxonil, fludioxonil, reference compound] has an MIC ([1]; 24 h, read-out: MIC (A), Table 2, Compound A alone, 24 hour incubation) of 0.481 µg/mL, an MIC ([1]; 24 h, read-out: MIC (A), Table 3, Compound A alone, 24 hour incubation) of 0.241 µg/mL and an MIC ([1]; 24 h, read-out: MIC(A), Table 7, Compound A alone, 24 hour incubation) of 0.481 µg/mL. For the same molecule, the MIC ([1]; 48 h, read-out: MIC (A), Table 13, Compound A alone, incubation 48 hours) was 21 µg/mL, the MIC ([1]; 48 h, read-out: MIC (A), Table 15B, Compound A alone, incubation 48 hours) was 21 µg/mL and the MIC ([1]; 48 h, read-out: MIC (A), Table 29, Compound A alone, 48 hours incubation) was 21 µg/mL. The MIC ([1]; read-out: MIC (A), Table 8, Compound A alone) was 0.481 µg/mL and the MIC ([3]; read-out: MIC (A), Table 37, Compound A alone, 7 days incubation) was 0.164 µg/mL.

Molecule COCC(=O)N(c1c(C)cccc1C)C(C)C(=O)OC (centres unmarked) [Metalaxyl, reference compound] has an MIC [2, 4] of 316 µg/mL, an MIC ([2]; Table 26, Compound A alone, 48 hours incubation, read-out: MIC (A)) of 316 µg/mL and an MIC ([2]; Table 48, Compound A alone, 48 hours incubation, read-out: MIC (A)) of 316 µg/mL. The MIC [3, 5] was 1260 µg/mL.

CCCCCCCC/C=C\CCCCCCCC(=O)O [Oleic acid] gave an MIC [2, 14] of 5000 µg/mL and an MIC [2, 8] of 5000 µg/mL.

In the case of Cc1cc(C(F)(F)F)nn1CC(=O)N1CCC(c2nc(C3=NOC(c4c(F)cccc4F)C3)cs2)CC1 (centres unmarked) [Oxathiapiprolin, reference compound], the “MIC (A)” value ([2]; Table 55, Compound A alone, 48 hours incubation) was 500 µg/mL.

For CCCC1COC(Cn2cncn2)(c2ccc(Cl)cc2Cl)O1 (centres unmarked) [Propiconazole, reference compound], the MIC ([2]; Table 24, Compound A alone, 48 hours incubation, read-out: MIC (A)) was 89 µg/mL, the MIC ([3]; Table 18, Compound A alone, incubation 7 days, read-out: MIC (A)) was 89 µg/mL and the MIC [3, 5] was 89 µg/mL. The MIC ([3]; Table 39, Compound A alone, 7 days incubation, read-out: MIC (A)) was 89 µg/mL.

CCCCC/C=C/C(=O)O [Trans-2-octenoic acid, trans-2-octenoic acid] showed an MIC ([1]; 24 h, Table 3, Compound B alone, 24 hour incubation, read-out: MIC(B)) of 149 µg/mL, an MIC ([1]; 24 h, Table 4, Compound B alone, 24 hour incubation, read-out: MIC (B)) of 149 µg/mL and an MIC [1, 9] of 312 µg/mL. For the same molecule, the MIC [1, 10] was 156 µg/mL, the MIC ([1]; 48 h, Table 31, Compound B alone, 48 hours incubation, read-out: MIC (B)) was 156 µg/mL and the MIC ([1]; 48 h, Table 32, Compound B alone, 48 hours incubation, read-out: MIC (B)) was 312 µg/mL.

CON=C(C(=O)OC)c1ccccc1CON=C(C)c1cccc(C(F)(F)F)c1 [Trifloxystrobin, reference compound] gave an MIC ([2]; Table 58, Compound A alone, 48 hours incubation, read-out: MIC (A)) of 250 µg/mL and an MIC ([2]; Table 59, Compound A alone, 48 hours incubation, read-out: MIC (A)) of 250 µg/mL.
